Test results taken from US10669537B2, “Mutagenizing intracellular nucleic acids” (priority 2016, dated 2020).
Read-outs that look alike come from different tables or passages of the source.

How the values were obtained:
[1] = system: Saccharomyces cerevisiae BY4741 URA3+; test: 5-FOA resistance frequency after URA3 mutagenesis; type: cell-based; conditions: one cycle of URA3 soft-randomized oligo pool mutagenesis; 5-FOA SD agar plates
Source text: To perform mutagenesis without necessitating additional genomic modifications and thus keeping the flexibility of the prokaryotic, pORTMAGE-based approach, the wild-type yeast homologous recombination system was employed to set-up overlapping, soft-randomized oligo pool-mediated mutagenesis. As the target, the endogenous URA3 gene in Saccharomyces cerevisiae BY4741 URA3+(SEQ ID NO:221), encoding orotidine 5-phosphate decarboxylase was chosen. Loss-of-function URA3 mutants can be readily selected based on their 5-Fluoroorotic Acid (5-FOA)-resistant phenotype on 5-FOA containing agar plates (DiCarlo et al. 2013). Therefore, mutagenesis was assayed as the fraction of resistant cells towards 5-FOA in diversified cell populations compared with the frequency of an unmutagenized control. Using 11 overlapping spiked oligo pools (SEQ ID NO:200-SEQ ID NO:210), a single overlapping, soft-randomized oligo pool-mediated mutagenesis cycle was performed.
Specifically, overlapping, soft-randomized oligos for S. cerevisiae URA3 were designed to target the non-coding strand of URA3 (YEL021W, SEQ ID NO:221). Spiked oligonucleotides were synthesized as described in Example 1. Yeast-mutagenesis was performed by delivering oligonucleotides to S. cerevisiae BY4741 URA3+ cells by electroporation. […] As the next step, URA3 mutagenesis was assessed by measuring 5-fluoroorotic acid (5-FOA) resistance frequency. […]

[2] = system: E. coli K-12 MG1655; type: cell-based, Escherichia coli; conditions: ciprofloxacin two-fold higher than wild-type MIC, LB agar
Description: All four constituents were mutagenized along the full lengths of their corresponding protein-coding DNA regions in their native genomic context. Accordingly, a single round of rMAGE mutagenesis was performed in E. coli K-12 MG1655, using SEQ ID NO:37-SEQ ID NO:167.
However, ciprofloxacin also has lower binding affinity to the homologous DNA topoisomerase IV complex (Khodursky, Zechiedrich, and Cozzarelli 1995). Therefore, mutagenesis at the target sites was assayed by a ciprofloxacin frequency-of-resistance assay.

[3] = system: E. coli K-12 MG1655; conditions: L28R
Description: As a measure of the effect of each individual genotype, relative IC75 values for each of the corresponding mutants were determined and compared to the IC75 of the wild-type.

[4] = system: parental Escherichia coli K-12 MG 1655
Description: Subsequently, the genotype of around 1000 resistant mutants was determined by High-Throughput (HT) SMRT sequencing.

## O=C(O)c1[nH]c(=O)[nH]c(=O)c1F [5-FOA, 5-Fluoroorotic Acid]
[1]
  upregulation of the fraction of 5-FOA resistant cells compared to background level: 77 fold

## O=C(O)c1cn(C2CC2)c2cc(N3CCNCC3)c(F)cc2c1=O [ciprofloxacin]
[2]; cell population mutagenized at gyrA, gyrB, parC, parE
  frequency of ciprofloxacin resistant variants: 10^−4
[2]; non-mutagenised control cell populations
  frequency of ciprofloxacin resistant variants: 1.83*10^−7

## COc1cc(Cc2cnc(N)nc2N)cc(OC)c1OC [Trimethoprim, trimethoprim]
[3]; strain E. coli MG1655 1, folA C-58T, A26T, P39R
  Trimethoprim IC75 value: 1162 µg/mL
[3]; strain E. coli MG1655 2, folA C-58T, A26T, P39R
  Trimethoprim IC75 value: 1162 µg/mL
[3]; strain E. coli MG1655 3, folA C-58T, A26T, P39R
  Trimethoprim IC75 value: 1346 µg/mL
[3]; strain E. coli MG1655 4, folA C-58T, A26T, P39R
  Trimethoprim IC75 value: 1254 µg/mL
[3]; strain E. coli MG1655 5, folA C-58T, A26T, P39R
  Trimethoprim IC75 value: 1162 µg/mL
[3]; strain E. coli MG1655 6, folA C-58T, A26T, P39R
  Trimethoprim IC75 value: 1254 µg/mL
[3]; strain E. coli MG1655 7, folA C-58T
  Trimethoprim IC75 value: 448 µg/mL
[3]; strain E. coli MG1655 8, folA C-58T, T-74A, N147D
  Trimethoprim IC75 value: 448 µg/mL
[3]; strain E. coli MG1655 9, folA C-58T
  Trimethoprim IC75 value: 610 µg/mL
[3]; strain E. coli MG1655 10, folA C-58T
  Trimethoprim IC75 value: 610 µg/mL
[3]; strain E. coli MG1655 11, folA C-58T
  Trimethoprim IC75 value: 518 µg/mL
[3]; strain E. coli MG1655 12, folA C-43T, C-58T, A26D, H45R
  Trimethoprim IC75 value: 794 µg/mL
[4]
  growth on trimethoprim solid media: cannot grow
